Data: patent publication US11420943B2, “Peptide derivatives and therapeutic activity thereof” (FLAMMA S.P.A., priority 2017, dated 2022)
Like-named read-outs stand apart in the source and are kept apart here. Where a SMILES comes first, the peptide text is derived from it. [ ]: non-standard residue; d: D form. Aib = CC(C)(N)C(=O)O

How the values were obtained:
[1] = Carbonyl-quenching activity towards HNE in vitro (residual HNE by reverse-phase chromatography); type: biochemical; details: for ACTIVITY (CARNOSINE UNIT) 1 h / HNE CONSUMPTION (%) 1 h: 1 h incubation; for ACTIVITY (CARNOSINE UNIT) 1 h / HNE CONSUMPTION (%) 1 h / ACTIVITY (CARNOSINE UNIT) 3 h / HNE CONSUMPTION (%) 3 h: HNE 50 μM, compound 1 mM, phosphate buffer 10 mM, pH 7.4, 37° C.; for ACTIVITY (CARNOSINE UNIT) 3 h / HNE CONSUMPTION (%) 3 h: 3 h incubation
Procedure: (§1) The pharmacological activity of the compounds according to the invention was determined in vitro by evaluating their carbonyl-quenching activity towards 4-hydroxy nonenal (HNE), which is known for its involvement in numerous disorders. Said activity was compared with that of L-carnosine, a compound known as a carbonyl quencher in vitro but having limited metabolic stability caused by serum carnosinase. The metabolic stability of a particularly interesting compound was also evaluated in human serum after 1 and 2 hours.
The activity was evaluated one and three hours after incubation, determining the residual HNE content by reverse-phase chromatography as previously described by Aldini G. et al. [Biochem Biophys Res Commun. 2002 Nov. 15; 298 (5):699-706]. The carbonyl-quenching activity is evaluated on the basis of the percentage of HNE reacted, compared with the HNE content in the absence of the molecule to be tested.

[2] = Stability in human serum (HPLC-MS recovery); type: in vitro ADME; details: 37° C.
Procedure: as §1
The samples taken from each matrix, suitably treated, were analysed by HPLC-MS, obtaining recovery after 1 h and 2 h.

[3] = reported in WO2011/080139, same test; cited from earlier work

Stability in plasma (% residual amount) 1 h ([2]; 1 h) [%] | Stability in plasma (% residual amount) 2 h ([2]; 2 h) [%] | Structure (SMILES) | ACTIVITY (CARNOSINE UNIT) 1 h [1] [CARNOSINE UNIT] | HNE CONSUMPTION (%) 1 h [1] [%] | ACTIVITY (CARNOSINE UNIT) 3 h [1] [CARNOSINE UNIT] | HNE CONSUMPTION (%) 3 h [1] [%] | carbonyl-quenching activity, times greater than that of L-carnosine ([1]; see Table I) [times] | carbonyl-quenching activity, times greater than that of L-carnosine [3] [times]
 |  | CC(C)(CN)C(=O)N[C@@H](Cc1c[nH]cn1)C(=O)O [FLM-04-ACI, N-(3-amino-2,2-dimethylpropanoyl)-L-histidine] | 1.76 | 30.06 ± 4.68 | 1.51 | 64.44 ± 4.37 |  | 
 |  | CC(C)(N)CC(=O)N[C@@H](Cc1c[nH]cn1)C(=O)O [FLM-02-ACI, N-(3-amino-3,3-dimethylpropanoyl)-L-histidine] | 0.02 | 0.40 ± 1.73 | 0.14 | 6.05 ± 1.66 |  | 
101.78 ± 16.20 | 100.34 ± 9.46 | CC(C)(CN)C(=O)N[C@H](CO)Cc1c[nH]cn1 [FLM-04-OLO, (S)-3-amino-N-(1-hydroxy-3-(1H-imidazol-4-yl)propan-2-yl)-2,2-dimethylpropanamide] | 3.13 | 52.14 ± 5.56 | 2.00 | 86.47 ± 2.73 | 3.1 | 
 |  | NCCC(=O)N[C@H](CO)Cc1cnc[nH]1 [3-amino-N-[(1S)-2-hydroxy-1-(1H-imidazol-5-yl-methyl)ethyl]propanamide] |  |  |  |  |  | 1.6
 |  | NCC1(C(=O)N[C@@H](Cc2c[nH]cn2)C(=O)O)CC1 [FLM-09-ACI] | 0.81 | 13.70 ± 0.83 | 0.89 | 36.11 ± 2.87 |  | 
 |  | NCC1(C(=O)N[C@H](CO)Cc2c[nH]cn2)CC1 [FLM-09-OLO, (S)-1-(aminomethyl)-N-(1-hydroxy-3-(1H-imidazol-4-yl)propan-2-yl)cyclopropanecarboxamide] | 1.55 | 26.21 ± 1.04 | 1.45 | 59.09 ± 1.49 |  | 
 |  | CC(C)(N)C(=O)N[C@@H](Cc1c[nH]cn1)C(=O)O [FLM-05-ACI, N-(2-amino-2-methylpropanoyl)-L-histidine] (H-[Aib]-His-OH) | 0.33 | 5.58 ± 7.50 | 0.37 | 15.84 ± 10.65 |  | 
 |  | CC(C)(N)C(=O)N[C@H](CO)Cc1c[nH]cn1 [FLM-05-OLO, (S)-2-amino-N-(1-hydroxy-3-(1H-imidazol-4-yl)propan-2-yl)-2-methylpropanamide] | 0.38 | 6.40 ± 1.72 | 0.45 | 19.44 ± 2.36 |  | 
 |  | NCC1(C(=O)N[C@@H](Cc2c[nH]cn2)C(=O)O)CCCCC1 [FLM-14-ACI] | 1.71 | 29.10 ± 2.97 | 1.36 | 58.03 ± 2.37 |  | 
 |  | CC(C)(CN)C(=O)N[C@@H](Cc1c[nH]cn1)C(=O)O [FLM-12-ACI, N-(3-amino-2,2-dimethylpropanoyl)-L-histidine] | 1.58 | 27.07 ± 9.77 | 1.20 | 51.35 ± 9.22 |  | 
 |  | NCCC(=O)N[C@@H](Cc1cnc[nH]1)C(=O)O [CARNOSINE, L-carnosine, reference compound] | 1.00 | 17.05 ± 1.24 | 1.00 | 42.66 ± 0.89 |  | 
 |  | NCC(F)(F)C(=O)N[C@H](CO)Cc1c[nH]cn1 [FLM-07-OLO, (S)-3-amino-2,2-difluoro-N-(1-hydroxy-3-(1H-imidazol-4-yl)propan-2-yl)propanamide] | 1 | 17.07 ± 1.76 | 0.82 | 34.93 ± 0.58 |  | 
 |  | NCC1(C(=O)N[C@@H](Cc2c[nH]cn2)C(=O)O)CCC1 [FLM-10-ACI] | 1.06 | 17.89 ± 1.97 | 1.11 | 45.04 ± 2.94 |  | 
 |  | CC(C)(N)CC(=O)N[C@H](CO)Cc1c[nH]cn1 [FLM-02-OLO, (S)-3-amino-N-(1-hydroxy-3-(1H-imidazol-4-yl)propan-2-yl)-3,3-dimethylpropanamide] | 0.25 | 4.09 ± 2.61 | 0.24 | 10.50 ± 2.24 |  | 
 |  | NCC1(C(=O)N[C@@H](Cc2c[nH]cn2)C(=O)O)CCCC1 [FLM-11-ACI] | 1.41 | 23.82 ± 1.55 | 1.31 | 53.54 ± 1.10 |  | 
 |  | NCC1(C(=O)N[C@H](CO)Cc2c[nH]cn2)CCC1 [FLM-10-OLO, (S)-1-(aminomethyl)-N-(1-hydroxy-3-(1H-imidazol-4-yl)propan-2-yl)cyclobutanecarboxamide] | 2.82 | 47.68 ± 3.02 | 2.08 | 84.63 ± 2.70 |  | 
 |  | CC(C)(CCN)C(=O)N[C@@H](Cc1c[nH]cn1)C(=O)O [FLM-13-ACI, N-(4-amino-2,2-dimethylbutanoyl)-L-histidine] | 0.69 | 11.77 ± 6.79 | 0.48 | 20.43 ± 7.94 |  | 
 |  | CC(C)(CCN)C(=O)N[C@H](CO)Cc1c[nH]cn1 [FLM-13-OLO, (S)-4-amino-N-(1-hydroxy-3-(1H-imidazol-4-yl)propan-2-yl)-2,2-dimethylbutanamide] | 0.62 | 10.54 ± 10.04 | 0.54 | 23.05 ± 12.28 |  | 
 |  | NCC1(C(=O)N[C@H](CO)Cc2c[nH]cn2)CCCC1 [FLM-11-OLO, (S)-1-(aminomethyl)-N-(1-hydroxy-3-(1H-imidazol-4-yl)propan-2-yl)cyclopentanecarboxamide] | 2.82 | 47.56 ± 0.69 | 2.06 | 83.90 ± 0.33 |  | 
 |  | NCC(F)(F)C(=O)N[C@@H](Cc1c[nH]cn1)C(=O)O [FLM-07-ACI, N-(3-amino-2,2-difluoropropanoyl)-L-histidine] | 0.46 | 7.88 ± 5.41 | 0.69 | 29.42 ± 6.42 |  | 
 |  | Cn1cncc1C[C@@H](CO)NC(=O)C(C)(C)CN [FLM-12-OLO, (S)-3-amino-N-(1-hydroxy-3-(1-methyl-1H-imidazol-5-yl)propan-2-yl)-2,2-dimethylpropanamide] | 2.98 | 50.77 ± 3.84 | 1.64 | 70.08 ± 2.98 |  | 
 |  | NCC1(C(=O)N[C@H](CO)Cc2c[nH]cn2)CCCCC1 [FLM-14-OLO, (S)-1-(aminomethyl)-N-(1-hydroxy-3-(1H-imidazol-4-yl)propan-2-yl)cyclohexanecarboxamide] | 2.84 | 48.36 ± 6.22 | 1.96 | 83.50 ± 5.85 |  | 
